Measured values published in patent publication US20100075960A1 (priority 2006, published 2010).
pIC50: −log10 of the molar value.

Columns and labels:
Format in all cases: cell-based
P388 = assay: Inhibition of cell proliferation, P388; conditions: Mouse leukemia, 72 h, methylene blue or CellTiter-Glo
Protocol: (§1) II. Inhibition of Cell Proliferation by PLK1 Inhibitors.
(§2) Exponentially growing cell lines of different tumor origins, cultured in appropriate media containing 10% fetal bovine serum at 37° C. in a 5% CO2 incubator were plated in 96 or 384-well plates. Twenty four hours post-plating, cells were treated with different concentrations of test compounds ranging from 20 μM to 0.04 nM. Several wells were left untreated as a control. Seventy two hours post-treatment, cell numbers were determined using different techniques; 100 μl per well of methylene blue (Sigma M9140) (0.5% in 50:50 Ethanol:water), or 10-100 μl per well of CellTiter-Glo (Promega #G7573), depending on well size. For methylene blue staining, stain was incubated at room temperature for 30 minutes before plates were rinsed and dye solubilized in 1% N-lauroyl sarcosine, sodium salt, (Sigma L5125, in PBS). Plates were read on a microplate reader, measuring the OD at 620 nm. For CellTiter-Glo, plates were incubated at room temperature for 15 minutes and the chemiluminescent signal was read on the Victor V or Envison 2100 reader.
(§3) Percent inhibition of cell growth was expressed as percent proliferation relative to 100% proliferation (control). Concentration of test compound that inhibited 50% of cell growth (IC50) was determined by 4 parameter fit of data using XLfit, (value of no cell control was substracted from all samples for background). The data are shown in Table 1 and Table 2 below and represent a compilation of several different experiments each performed using the general parameters outlined above, although minor variations may have been employed in some instances, in Table 1 and Table 2, +=IC50>1 μM; ++=IC50 0.5-1 μM: +++=IC50<0.5 μM.

H1299 = assay: Inhibition of cell proliferation, H1299; conditions: Homo sapiens, NCI-H1299; Lung; 72 h; methylene blue or CellTiter-Glo
Protocol: as §1, §2
(§4) Percent inhibition of cell growth was expressed as percent proliferation relative to 100% proliferation (control). […]

Hela = assay: Inhibition of cell proliferation, Hela; conditions: Homo sapiens, Cervical, 72 h, methylene blue or CellTiter-Glo
Protocol: as §1, §2, §4

HN5 = assay: Inhibition of cell proliferation, HN5; conditions: 72 h
Protocol: as §1, §2, §3

MDA-MB-468 = assay: Inhibition of cell proliferation, MDA-MB-468; conditions: Homo sapiens, Breast, 72 h, methylene blue or CellTiter-Glo
Protocol: as §1, §2, §4

MiaPaca = assay: Inhibition of cell proliferation, MiaPaca; conditions: Homo sapiens, MIA PaCa-2; Pancreatic; 72 h; methylene blue or CellTiter-Glo
Protocol: as §1, §2, §4

ASPC3 = assay: Inhibition of cell proliferation, ASPC3; conditions: Pancreatic; 72 h; methylene blue or CellTiter-Glo
Protocol: as §1, §2, §4

BXPC3 = assay: Inhibition of cell proliferation, BXPC3; conditions: Homo sapiens, BXPC-3; Pancreatic; 72 h; methylene blue or CellTiter-Glo
Protocol: as §1, §2, §4

RPMI 8226 = assay: Inhibition of cell proliferation, RPMI 8226; conditions: Homo sapiens, leukemia, 72 h, methylene blue or CellTiter-Glo
Protocol: as §1, §2, §4

Saos-2 = assay: Inhibition of cell proliferation, Saos-2; conditions: Homo sapiens, bone, 72 h, methylene blue or CellTiter-Glo
Protocol: as §1, §2, §4

BT474 = assay: Inhibition of cell proliferation, BT474; conditions: Homo sapiens, BT-474; breast; 72 h; methylene blue or CellTiter-Glo
Protocol: as §1, §2, §4

BT549 = assay: Inhibition of cell proliferation, BT549; conditions: Homo sapiens, BT-549; breast; 72 h; methylene blue or CellTiter-Glo
Protocol: as §1, §2, §4

HCC1954 = assay: Inhibition of cell proliferation, HCC1954; conditions: Homo sapiens, breast, 72 h, methylene blue or CellTiter-Glo
Protocol: as §1, §2, §4

T-47D = assay: Inhibition of cell proliferation, T-47D; conditions: Homo sapiens, T47D; breast; 72 h; methylene blue or CellTiter-Glo
Protocol: as §1, §2, §4

A 704 = assay: Inhibition of cell proliferation, A 704; conditions: Homo sapiens, A704; kidney; 72 h; methylene blue or CellTiter-Glo
Protocol: as §1, §2, §4

A498 = assay: Inhibition of cell proliferation, A498; conditions: Homo sapiens, kidney, 72 h, methylene blue or CellTiter-Glo
Protocol: as §1, §2, §4

SW156 = assay: Inhibition of cell proliferation, SW156; conditions: kidney; 72 h; methylene blue or CellTiter-Glo
Protocol: as §1, §2, §4

Hep3B = assay: Inhibition of cell proliferation, Hep3B; conditions: Homo sapiens, liver, 72 h, methylene blue or CellTiter-Glo
Protocol: as §1, §2, §4

Calu1 = assay: Inhibition of cell proliferation, Calu1; conditions: Homo sapiens, Calu-1; lung; 72 h; methylene blue or CellTiter-Glo
Protocol: as §1, §2, §4

BDCM = assay: Inhibition of cell proliferation, BDCM; conditions: peripheral blood; 72 h; methylene blue or CellTiter-Glo
Protocol: as §1, §2, §4

CA46 = assay: Inhibition of cell proliferation, CA46; conditions: Homo sapiens, peripheral blood, 72 h, methylene blue or CellTiter-Glo
Protocol: as §1, §2, §4

CEM/C1 = assay: Inhibition of cell proliferation, CEM/C1; conditions: peripheral blood, 72 h, methylene blue or CellTiter-Glo
Protocol: as §1, §2, §4

MALME-3M = assay: Inhibition of cell proliferation, MALME-3M; conditions: Homo sapiens, skin, derived from lung, 72 h, methylene blue or CellTiter-Glo
Protocol: as §1, §2, §4

NCI-N87 = assay: Inhibition of cell proliferation, NCI-N87; conditions: Homo sapiens, stomach, 72 h, methylene blue or CellTiter-Glo
Protocol: as §1, §2, §4

T24 = assay: Inhibition of cell proliferation, T24; conditions: Homo sapiens, T-24; urinary bladder; 72 h; methylene blue or CellTiter-Glo
Protocol: as §1, §2, §4

C[C@@H](Oc1cc(-n2cnc3cc(-c4cnn(C)c4)ccc32)sc1C(N)=O)c1cccc(OC2CCN(C)CC2)c1Cl [Example 48]
pIC50 (P388): > 6.30 | pIC50 (H1299): > 6.30 | pIC50 (Hela): > 6.30 | pIC50 (HN5; Homo sapiens, Head and neck, Table 2 first HN5 line): > 6.30 | pIC50 (HN5; head/neck, Table 2 second HN5 line): > 6.30 | pIC50 (MDA-MB-468): > 6.30 | pIC50 (MiaPaca): > 6.30 | pIC50 (ASPC3): > 6.30 | pIC50 (BXPC3): > 6.30 | pIC50 (RPMI 8226): > 6.30 | pIC50 (Saos-2): > 6.30 | pIC50 (BT474): < 6.00 | pIC50 (BT549): > 6.30 | pIC50 (HCC1954): > 6.30 | pIC50 (T-47D): < 6.00 | pIC50 (A 704): > 6.30 | pIC50 (A498): > 6.30 | pIC50 (SW156): < 6.00 | pIC50 (Hep3B): > 6.30 | pIC50 (Calu1): > 6.30 | pIC50 (BDCM): > 6.30 | pIC50 (CA46): > 6.30 | pIC50 (CEM/C1): > 6.30 | pIC50 (MALME-3M): < 6.00 | pIC50 (NCI-N87): > 6.30 | pIC50 (T24): > 6.30
